Laboratory results reported in patent US20160002247A1, “8-SUBSTITUTED IMIDAZOPYRIMIDINONE DERIVATIVE HAVING AUTOTAXIN INHIBITORY ACTIVITY” (THE UNIVERSITY OF TOKYO, priority 2013, published 2016).

These molecules were tested against T1, Human autotaxin enzyme (Homo sapiens, UniProt Q13822) (assay: Evaluation of autotaxin inhibitor, Method B (Test Example 2): TG-mTMP fluorescence). Settings: Assay Method B (Test Example 2), human autotaxin; read-out: Inhibitory Activity (autotaxin enzyme inhibitory activity, IC50 class).
T1 construct: purchased R&D System
Assay type: biochemical
Procedure, shortened: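 Human autotaxin in Tris-HCl pH 7.5 buffer with NaCl, MgCl2 and 0.1% BSA was reacted with TG-mTMP (0.5 μM solution added) and test compound for 2 hours at room temperature.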

IC50 [nM] | Structure (SMILES)
10 to 100 | CCCCCn1c(C)c(NC(C)=O)c(=O)n2cc(-c3ccc(Cl)cc3)nc12 [Compound 199]
< 10 | CCCCCn1c(N2CCOCC2)cc(=O)n2cc(-c3ccc(Cl)cc3)nc12 [Compound 234]
100 to 1000 | Cc1cc(=O)n2cc(-c3ccc(Cl)cc3)nc2n1Cc1ccc(-c2ccccc2)cc1 [Compound 88]
100 to 1000 | CCCCCn1c(C)cc(=O)n2cc(-c3ccc(F)cc3F)nc12 [Compound 162]
< 10 | CCCCCn1c(Oc2nccs2)cc(=O)n2cc(-c3ccc(Cl)cc3)nc12 [Compound 268]
10 to 100 | CCCCCn1c(N2CCCCC2)cc(=O)n2cc(-c3ccc(Cl)cc3)nc12 [Compound 246]
< 10 | CCCCCn1c(-c2ccc(OC)cc2)cc(=O)n2cc(-c3ccc(Cl)cc3)nc12 [Compound 397]

Same assay, conditions: Assay Method: Method B (Test Example 2); read-out: Inhibitory Activity (Enzyme Inhibitory Activity, IC50)

IC50 [nM] | Structure (SMILES)
< 10 | Cc1cc(=O)n2cc(-c3ccc(Cl)cc3)nc2n1Cc1ccc(OCCN2CCCC2)cc1 [Compound 85]

What follows are molecules tested against T2, Mouse autotaxin enzyme (Mus musculus, UniProt Q9R1E6) (assay: Evaluation of autotaxin inhibitor, Method A (Test Example 1): TG-mTMP fluorescence). Settings: Assay Method: Method A (Test Example 1); read-out: Inhibitory Activity (Enzyme Inhibitory Activity, IC50).
T2 construct: purchased R&D System
Assay type: biochemical
Description: (Method A) Evaluation of Autotaxin Inhibitor
Solution A containing 25 mM Tris-HCl buffer (pH7.5), 100 mM NaCl, 5 mM MgCl2 and 0.1% BSA was prepared. Mouse autotaxin enzyme (purchased from R&D System) was diluted with Solution A, and 5 μL of which was added to a solution of test compound in DMSO. Furthermore, 5 μl of 0.5 μM TG-mTMP in Solution A was added and allowed to react at room temperature for 2 hours. 5 μl of 150 mM EDTA in Solution A was added to quench the reaction, and a fluorescent dye TokyoGreen, which was produced by the reaction, was detected. The fluorescence was detected using ViewLux (PerkinElmer, Inc.) with an excitation wavelength of 480 nm and a fluorescence wavelength of 540 nm.
The percent inhibition of the test compound was calculated by assuming the sample with no test compound as 0% inhibition and the sample with no enzyme as 100% inhibition, and the percent inhibitions at different concentrations of the test compound were plotted to obtain a concentration-dependent curve.

Structure (SMILES) | IC50 [nM]
Cc1cc(=O)n2cc(-c3ccc(Cl)cc3)nc2n1C [Compound 4] | 100 to 1000
CCCCCCCCCn1c(C)cc(=O)n2cc(-c3ccc(Cl)cc3)nc12 [Compound 11] | 100 to 1000
CCN(C)C(=O)Cn1c(C)cc(=O)n2cc(-c3ccc(Cl)cc3)nc12 [Compound 25] | 100 to 1000
CCOC(=O)Cn1c(C)cc(=O)n2cc(-c3cccc(Br)c3)nc12 [Compound 33] | > 1000
CCCCCCCCCCn1c(C)cc(=O)n2cc(-c3ccc(Cl)cc3)nc12 [Compound 12] | 100 to 1000
CCOC(=O)Cn1c(C)cc(=O)n2cc(-c3cccc([N+](=O)[O-])c3)nc12 [Compound 37] | 100 to 1000
CCOC(=O)Cn1c(C)cc(=O)n2cc(-c3ccc(N)cc3)nc12 [Compound 38] | > 1000
CCn1c(C)cc(=O)n2cc(-c3ccc(Cl)cc3)nc12 [Compound 5] | 10 to 100
COCCOCCOCCn1c(C)cc(=O)n2cc(-c3ccc(Cl)cc3)nc12 [Compound 27] | > 1000
CCOC(=O)Cn1c(C)cc(=O)n2cc(-c3ccc(Cl)c(Cl)c3)nc12 [Compound 34] | 10 to 100
C#CCn1c(C)cc(=O)n2cc(-c3ccc(Cl)cc3)nc12 [Compound 16] | 10 to 100
CCOC(=O)Cn1c(C)cc(=O)n2cc(-c3cccc(N)c3)nc12 [Compound 39] | > 1000
CCNC(=O)Cn1c(C)cc(=O)n2cc(-c3ccc(Cl)cc3)nc12 [Compound 24] | 100 to 1000
CCCn1c(C)cc(=O)n2cc(-c3ccc(Cl)cc3)nc12 [Compound 6] | 10 to 100

Other lines, results leading:

IC50 [nM] | Structure (SMILES)
10 to 100 | CCOC(=O)Cn1c(C)cc(=O)n2cc(-c3ccc(F)cc3)nc12 [Compound 30]
10 to 100 | CCOC(=O)Cn1c(C)cc(=O)n2cc(-c3ccc(I)cc3)nc12 [Compound 40]
10 to 100 | CCCCCCCCn1c(C)cc(=O)n2cc(-c3ccc(Cl)cc3)nc12 [Compound 10]
10 to 100 | COC(=O)Cn1c(C)cc(=O)n2cc(-c3ccc(Cl)cc3)nc12 [Compound 21]
10 to 100 | CCCCCCCn1c(C)cc(=O)n2cc(-c3ccc(Cl)cc3)nc12 [Compound 9]
10 to 100 | CCOC(=O)Cn1c(C)cc(=O)n2cc(-c3ccc(OC)cc3)nc12 [Compound 32]
10 to 100 | CCOC(=O)Cn1c(C)cc(=O)n2cc(-c3ccccc3)nc12 [Compound 35]
10 to 100 | Cc1cc(=O)n2cc(-c3ccc(Cl)cc3)nc2n1CC(=O)OCc1ccccc1 [Compound 22]
10 to 100 | CCCCCn1c(C)cc(=O)n2cc(-c3ccc(C)cc3)nc12 [Compound 19]
10 to 100 | CCOC(=O)Cn1c(C)cc(=O)n2cc(-c3ccc(Br)cc3)nc12 [Compound 31]
10 to 100 | Cc1cc(=O)n2cc(-c3ccc(Cl)cc3)nc2n1CC(=O)OC(C)(C)C [Compound 23]
10 to 100 | C=CCn1c(C)cc(=O)n2cc(-c3ccc(Cl)cc3)nc12 [Compound 15]
10 to 100 | CCCCCn1c(C)cc(=O)n2cc(-c3ccc(F)cc3)nc12 [Compound 17]
10 to 100 | Cc1cc(=O)n2cc(-c3ccc(Cl)cc3)nc2n1C1CCCCC1 [Compound 14]
10 to 100 | CCOC(=O)Cn1c(C)cc(=O)n2cc(-c3ccc([N+](=O)[O-])cc3)nc12 [Compound 36]
